Assay results published in patent US20090016956A1, “Labeled Macrophages and Methods of Use Thereof” (priority 2007, published 2009).

Tested on: reverse cholesterol transport pathway (RCTP)
Assay: modulation of the reverse cholesterol transport pathway (RCTP); modified in vivo assay (MIVA), release of labeled cholesterol from loaded cells
Settings: general statement in the description; the data are only in FIGS. 1-8, values not given
Method: In another embodiment, the invention includes a method of loading of cells, (e.g., macrophages in culture) with labeled cholesterol, e.g., radiolabeled cholesterol, by exposing the cells to autologous red cell membrane fragments which have been equilibrated with labeled cholesterol. The exposed cells phagocytose the red cell membrane fragments and internalize and store the labeled cholesterol becoming, in effect, foam cells. These ‘loaded’ cells are then administered, e.g., intraveneously injected, into a subject and allowed to distribute throughout the subject and settle within its organs (e.g., heart, lung, kidney, liver). A base level of cholesterol release is observed. After an appropriate length of time, the subject is treated with the test agent, or compound of interest and the release of label (e.g., labeled cholesterol) is measured and/or monitored as a function of time, dose, or dosing regimen. The appropriate length of time may be approximately twenty four hours, although it may also be longer or shorter, if so desired.
Stimulation of cholesterol release from the introduced loaded cells results in a transient increase in the amount of circulating label over baseline. Measurement of the kinetics of label release is carried out by direct analysis of samples of circulating whole blood, plasma, serum, feces, urine, saliva and/or cerebral spinal fluid. […]

Question: For CCCCCCCCCC[Si](C)(C)CCC(=O)NC(Cc1ccc(C)cc1)c1ccccc1 (stereo not shown) [Sandoz 58-035], which “effectiveness in modulation of the RCTP” value is on record?
Answer: effective in modulation of the RCTP
